{"source": "ChEMBL document CHEMBL5244217", "about": "“β-Carboline alkaloid monomers and dimers: Occurrence, structural diversity, and biological activities” (Eur J Med Chem, 2018)", "key": {"Cryptococcus neoformans": {"system": "Cryptococcus neoformans", "experiment": "Antimicrobial activity against Cryptococcus neoformans", "assay_type": "functional"}, "Staphylococcus aureus [1]": {"system": "Staphylococcus aureus", "experiment": "Antimicrobial activity against Staphylococcus aureus", "assay_type": "functional"}, "Candida albicans": {"system": "Candida albicans", "experiment": "Antimicrobial activity against Candida albicans", "assay_type": "functional"}, "[2]": {"experiment": "Selectivity index, ratio of IC50 for cytotoxicity against rat L6 cells to IC50 for Antimalarial activity against Plasmodium falciparum K1 strain", "assay_type": "toxicity, cell-based", "conditions": "read-out: Selectivity Index"}, "Plasmodium falciparum [3]": {"system": "Plasmodium falciparum", "experiment": "Antimalarial activity against Plasmodium falciparum K1 strain", "assay_type": "functional, organism-based"}, "[4]": {"system": "Human immunodeficiency virus 1", "experiment": "Antiviral activity against HIV1 IIIB infected in human C8166 cells assessed as reduction in virus-induced cytopathic effect measured after 3 days by Syncytia assays", "assay_type": "functional, organism-based", "conditions": "Human immunodeficiency virus 1, IIIB, C8166, 72 h"}, "Micrococcus luteus": {"system": "Micrococcus luteus", "experiment": "Antibacterial activity against Sarcina lutea", "assay_type": "functional"}, "Bacillus subtilis": {"system": "Bacillus subtilis", "experiment": "Antibacterial activity against Bacillus subtilis", "assay_type": "functional"}, "Corynebacterium xerosis": {"system": "Corynebacterium xerosis", "experiment": "Antibacterial activity against Corynebacterium xerosis", "assay_type": "functional"}, "[5]": {"system": "Mycolicibacterium smegmatis", "experiment": "Antibacterial activity against Mycobacterium smegmatis ATCC 14468", "assay_type": "functional"}, "[6]": {"system": "Mycolicibacterium smegmatis", "experiment": "Antibacterial activity against Mycolicibacterium smegmatis MC2 2700", "assay_type": "functional"}, "[7]": {"system": "Mycolicibacterium fortuitum", "experiment": "Antibacterial activity against Mycobacterium fortuitum ATCC 6841", "assay_type": "functional"}, "Staphylococcus aureus [8]": {"system": "Staphylococcus aureus", "experiment": "Antibacterial activity against Staphylococcus aureus XU212", "assay_type": "functional"}, "Staphylococcus aureus [9]": {"system": "Staphylococcus aureus", "experiment": "Antibacterial activity against Staphylococcus aureus 1199B", "assay_type": "functional"}, "Mycolicibacterium phlei": {"system": "Mycolicibacterium phlei", "experiment": "Antibacterial activity against Mycolicibacterium phlei ATCC 11758", "assay_type": "functional"}, "Staphylococcus aureus [10]": {"system": "Staphylococcus aureus", "experiment": "Antibacterial activity against Staphylococcus aureus EMRSA-15", "assay_type": "functional"}, "Alpha-glucosidase": {"target": "Alpha-glucosidase (Saccharomyces cerevisiae S288c, UniProt P53341+P38158+P07265)", "experiment": "Inhibition of Saccharomyces cerevisiae alpha-glucosidase activity using pNPG as substrate", "assay_type": "protein assay"}, "dengue virus type 2": {"system": "dengue virus type 2", "experiment": "Antiviral activity against DENV-2 strain New Guinea C infected in Vero cells assessed as reduction in virus yield measured after 48 hrs", "assay_type": "functional, organism-based"}, "[11]": {"system": "Human immunodeficiency virus 1", "experiment": "Antiviral activity against HIV1", "assay_type": "functional, organism-based"}, "KB": {"system": "KB", "experiment": "Cytotoxicity against human KB cells", "assay_type": "functional", "conditions": "read-out: ED50 (the source's name)"}, "MDA-MB-231": {"system": "MDA-MB-231", "experiment": "Cytotoxicity against human MDA-MB-231 cells", "assay_type": "functional, cell-based"}, "[12]": {"system": "Trypanosoma brucei brucei", "experiment": "Antitrypanosomal activity against Trypanosoma brucei brucei", "assay_type": "functional, organism-based"}, "Plasmodium falciparum [13]": {"system": "Plasmodium falciparum", "experiment": "Antimalarial activity against Plasmodium falciparum", "assay_type": "functional, organism-based"}, "HL-60": {"system": "HL-60", "experiment": "Cytotoxicity against human HL-60 cells", "assay_type": "functional, cell-based"}}}
{"smiles": "CSc1c(C2=C(c3c[nH]c4ccc(O)cc34)C(=O)N3c4ccc(O)cc4C4C=C(C(=O)O)N=C2C43)n(C)c[n+]1C", "note": "(centres undefined)", "values": [{"measurement": "MIC", "setting": "Cryptococcus neoformans", "result": 8, "unit": "µg/mL"}, {"measurement": "MIC", "setting": "Staphylococcus aureus [1]", "result": 8, "unit": "µg/mL"}, {"measurement": "MIC", "setting": "Candida albicans", "result": 8, "unit": "µg/mL"}]}
{"smiles": "C[n+]1ccc2c(c1)[nH]c1ccc(Cl)cc12", "note": "[NOSTOCARBOLINE]", "values": [{"measurement": "selectivity ratio", "setting": "[2]", "result": 2500}, {"measurement": "IC50", "setting": "Plasmodium falciparum [3]", "result": 0.018, "unit": "µM"}]}
{"smiles": "O=C(O)c1cc2c([nH]c3ccccc32)c(-c2ccc(CO)o2)n1", "note": "[FLAZINE]", "values": [{"measurement": "IC50", "setting": "[4]", "result": 2.37, "unit": "µM"}]}
{"smiles": "CSc1c(C2=C(c3c[nH]c4ccc(O)cc34)C(=O)N3c4ccc(O)cc4C4C=CN=C2C43)n(C)c[n+]1C", "note": "(centres undefined)", "values": [{"measurement": "MIC", "setting": "Cryptococcus neoformans", "result": 4, "unit": "µg/mL"}, {"measurement": "MIC", "setting": "Staphylococcus aureus [1]", "result": 4, "unit": "µg/mL"}, {"measurement": "MIC", "setting": "Candida albicans", "result": 4, "unit": "µg/mL"}]}
{"smiles": "Oc1cccc2c3c([nH]c12)C(C1=C[C@@]2(O)CC/C=C\\CCCCN4CC[C@@H]1[C@]1(C[C@@H]5/C=C\\CCCCN5[C@H]12)C4)=NCC3", "values": [{"measurement": "MIC", "setting": "Micrococcus luteus", "result": 4, "unit": "µg/mL"}]}
{"smiles": "O[C@H]1[C@H]2[C@@H]3c4[nH]c5ccccc5c4CCN3CN3CCCC/C=C\\CC[C@@]45CN(CCCC/C=C\\CC[C@@]1(O)[C@H]34)CC[C@@H]25", "values": [{"measurement": "MIC", "setting": "Micrococcus luteus", "result": 2.8, "unit": "µg/mL"}, {"measurement": "MIC", "setting": "Bacillus subtilis", "result": 2.8, "unit": "µg/mL"}, {"measurement": "MIC", "setting": "Corynebacterium xerosis", "result": 5.7, "unit": "µg/mL"}]}
{"smiles": "O=c1ccc2nccc3c4ccccc4n1c23", "note": "[CANTHIN-6-ONE]", "values": [{"measurement": "MIC", "setting": "[5]", "result": 8, "unit": "µg/mL"}, {"measurement": "MIC", "setting": "[6]", "result": 8, "unit": "µg/mL"}, {"measurement": "MIC", "setting": "[7]", "result": 16, "unit": "µg/mL"}, {"measurement": "MIC", "setting": "Staphylococcus aureus [8]", "result": 8, "unit": "µg/mL"}, {"measurement": "MIC", "setting": "Staphylococcus aureus [9]", "result": 8, "unit": "µg/mL"}, {"measurement": "MIC", "setting": "Mycolicibacterium phlei", "result": 8, "unit": "µg/mL"}, {"measurement": "MIC", "setting": "Staphylococcus aureus [10]", "result": 32, "unit": "µg/mL"}]}
{"smiles": "Oc1cccc2c1[nH]c1c(C3=C[C@@]4(O)CC/C=C\\CCCCN5CC[C@@H]3[C@]3(C[C@@H]6/C=C\\CCCCN6[C@H]34)C5)nccc12", "values": [{"measurement": "MIC", "setting": "Micrococcus luteus", "result": 0.91, "unit": "µg/mL"}]}
{"smiles": "O=C(CO)CCC(=O)c1nc(C(=O)O)cc2c1[nH]c1ccccc12", "values": [{"measurement": "IC50", "setting": "Alpha-glucosidase", "result": 63.3, "unit": "µg/mL"}]}
{"smiles": "COc1ccc2c3ccnc(C)c3n(C)c2c1", "values": [{"measurement": "EC50", "setting": "dengue virus type 2", "result": 3.2, "unit": "µM"}]}
{"smiles": "O[C@]12C=C(c3nccc4c3[nH]c3ccccc34)[C@@H]3CCN(CCCC/C=C\\CC1)C[C@@]31C[C@@H]3/C=C\\CCCCN3[C@H]12", "note": "[MANZAMINE A]", "values": [{"measurement": "IC50", "setting": "[11]", "result": 4.2, "unit": "µM"}]}
{"smiles": "Oc1ccc2[nH]c3c(C4=C[C@@]5(O)CC/C=C\\CCCCN6CC[C@@H]4[C@@]4(C6)C[C@@]67CCC(CCCN6[C@H]45)O7)nccc3c2c1", "values": [{"measurement": "IC50", "setting": "[11]", "result": 2.3, "unit": "µM"}]}
{"smiles": "CC(C)CC(N)c1nccc2c1[nH]c1cc(Br)ccc12", "note": "(centres undefined) [EUDISTALBIN A]", "values": [{"measurement": "EC50", "setting": "KB", "result": "< 3.2", "unit": "µg/mL"}, {"measurement": "IC50", "setting": "MDA-MB-231", "result": 2.1, "unit": "µM"}]}
{"smiles": "NC(=O)c1cc2c([nH]c3ccccc32)c(-c2ccc(CO)o2)n1", "values": [{"measurement": "EC50", "setting": "[4]", "result": 0.38, "unit": "µM"}]}
{"smiles": "O[C@]12C=C(C3c4[nH]c5ccccc5c4CCN3CCc3nccc4c3[nH]c3ccccc34)[C@@H]3CCN(CCCC/C=C\\CC1)C[C@@]31C[C@@H]3/C=C\\CCCCN3[C@H]12", "note": "(some centres undefined)", "values": [{"measurement": "IC50", "setting": "[12]", "result": 0.27, "unit": "µg/mL"}, {"measurement": "IC50", "setting": "Plasmodium falciparum [13]", "result": 0.58, "unit": "µg/mL"}]}
{"smiles": "COc1ccc2c3c([nH]c2c1)[C@]12CC(C)(C)[C@@]4(C(=O)N1CC3)c1[nH]c3cc(OC)ccc3c1CCN24", "values": [{"measurement": "IC50", "setting": "HL-60", "result": 5.8, "unit": "µM"}]}
{"smiles": "N=C(N)NCCC[C@H]1NCCc2c1[nH]c1cc(Br)ccc21", "values": [{"measurement": "MIC", "setting": "[5]", "result": 16, "unit": "µg/mL"}, {"measurement": "MIC", "setting": "[6]", "result": 2, "unit": "µg/mL"}, {"measurement": "MIC", "setting": "[7]", "result": 16, "unit": "µg/mL"}, {"measurement": "MIC", "setting": "Staphylococcus aureus [8]", "result": 8, "unit": "µg/mL"}, {"measurement": "MIC", "setting": "Staphylococcus aureus [9]", "result": 16, "unit": "µg/mL"}, {"measurement": "MIC", "setting": "Mycolicibacterium phlei", "result": 8, "unit": "µg/mL"}, {"measurement": "MIC", "setting": "Staphylococcus aureus [10]", "result": 64, "unit": "µg/mL"}]}
{"smiles": "Oc1ccc2[nH]c3c(C4=C[C@@]5(O)CC/C=C\\CCCCN6CC[C@@H]4[C@]4(C[C@@H]7/C=C\\CCCCN7[C@H]45)C6)nccc3c2c1", "note": "[MANZAMINE Y]", "values": [{"measurement": "MIC", "setting": "Micrococcus luteus", "result": 0.25, "unit": "µg/mL"}]}
